Experimental data from patent US9708314B2, “Heterocyclic amide compound” (NISSAN CHEMICAL INDUSTRIES, LTD., priority 2013, dated 2017).

Tests used:
Format in all cases: in vivo
Zea mays = experiment: Test Example 4: effect on crop by application to foliage (diluvial soil, plastic box); conditions: foliage application, 320 g/ha
Summary of the method: (§1)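 Greenhouse plants (25° C. to 30° C., 14 d, diluvial soil) receive a foliar spray of water-diluted emulsifiable formulation at defined g/ha. Grading after 3 weeks uses a six-step herbicidal-ratio scale, with 4 covering 70% to <90% and 1 covering 5% to <20%.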

Brassica campestris L. = experiment: as above; conditions: foliage application, 320 g/ha
Summary of the method: as §1

Glycine max = experiment: as above; conditions: foliage application, 320 g/ha
Summary of the method: as §1

[1] = tested on: directly sowed Oryza sativa; experiment: as above; conditions: foliage application, 320 g/ha
Summary of the method: as §1

Triticum aestivum = experiment: as above; conditions: foliage application, 320 g/ha
Summary of the method: as §1

[2] = tested on: Beta vulgaris ssp. vulgaris; experiment: as above; conditions: foliage application, 320 g/ha
Summary of the method: as §1

[3] = tested on: Echinochloa oryzacola Vasing.; experiment: Test Example 2: herbicidal activity, application during weed generation in submerged conditions; conditions: Eighteenth Table; application herbicide amount 320 g/ha
Summary of the method: (§2)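 Seeds were sown together in alluvial soil kept under 4 cm of water and grown at 25 °C to 30 °C. Once plants reached the one- to two-leaf stage, the diluted emulsion was applied to the water surface at a predetermined g/ha amount, and effects were rated 0–5 after three weeks.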

Scirpus juncoides = experiment: as above; conditions: Eighteenth Table; application herbicide amount 320 g/ha
Summary of the method: as §2

Monochoria vaginalis = experiment: as above; conditions: Eighteenth Table; application herbicide amount 320 g/ha
Summary of the method: as §2

Digitaria ciliaris = experiment: Test Example 4: herbicidal effect by application to foliage (diluvial soil, plastic box); conditions: foliage application, 320 g/ha
Summary of the method: as §1

Galium spurium = experiment: as above; conditions: foliage application, 320 g/ha
Summary of the method: as §1

Apera spica-venti. = experiment: as above; conditions: foliage application, 320 g/ha
Summary of the method: as §1

Alopecurus myosuroides = experiment: as above; conditions: foliage application, 320 g/ha
Summary of the method: as §1

Veronica persica = experiment: as above; conditions: foliage application, 320 g/ha
Summary of the method: as §1

Abutilon theophrasti = experiment: as above; conditions: foliage application, 320 g/ha
Summary of the method: as §1

Amaranthus retroflexus = experiment: as above; conditions: foliage application, 320 g/ha
Summary of the method: as §1

Stellaria media = experiment: as above; conditions: foliage application, 320 g/ha
Summary of the method: as §1

[4] = tested on: Echinochloa crus-galli var. crus-galli; experiment: as above; conditions: foliage application, 320 g/ha
Summary of the method: as §1

Chenopodium album = experiment: as above; conditions: foliage application, 320 g/ha
Summary of the method: as §1

Setaria viridis = experiment: as above; conditions: foliage application, 320 g/ha
Summary of the method: as §1

Avena fatua = experiment: as above; conditions: foliage application, 320 g/ha
Summary of the method: as §1

Lolium multiflorum Lam. = experiment: as above; conditions: foliage application, 320 g/ha
Summary of the method: as §1

SMILES	b (Zea mays) effect on crop grade (Zea mays)	g (Brassica campestris L.) effect on crop grade (Brassica campestris L.)	c (Glycine max) effect on crop grade (Glycine max)	d (directly sowed Oryza sativa) effect on crop grade [1]	e (Triticum aestivum) effect on crop grade (Triticum aestivum)	f (Beta vulgaris ssp. vulgaris) effect on crop grade [2]	A (Echinochloa oryzicola Vasing.) herbicidal ratio grade [3]	B (Scirpus juncoides) herbicidal ratio grade (Scirpus juncoides)	C (Monochoria vaginalis) herbicidal ratio grade (Monochoria vaginalis)	F (Digitaria ciliaris) herbicidal effect grade (Digitaria ciliaris)	Q (Galium spurium) herbicidal effect grade (Galium spurium)	L (Apera spica-venti.) herbicidal effect grade (Apera spica-venti.)	J (Alopecurus myosuroides) herbicidal effect grade (Alopecurus myosuroides)	R (Veronica persica) herbicidal effect grade (Veronica persica)	M (Abutilon theophrasti) herbicidal effect grade (Abutilon theophrasti)	N (Amaranthus retroflexus) herbicidal effect grade (Amaranthus retroflexus)	P (Stellaria media) herbicidal effect grade (Stellaria media)	H (Echinochloa crus-galli var. crus-galli) herbicidal effect grade [4]	O (Chenopodium album) herbicidal effect grade (Chenopodium album)	G (Setaria viridis) herbicidal effect grade (Setaria viridis)	other results
CCOC(=O)Cc1nnc2c(C(=O)Nc3nnnn3C)ccc(C(F)(F)F)n12 [2-040]	4 (Herbicidal ratio of 70% or more and less than 90%)	3 (Herbicidal ratio of 40% or more and less than 70%)	1 (Herbicidal ratio of 5% or more and less than 20%)	4 (Herbicidal ratio of 70% or more and less than 90%)	2 (Herbicidal ratio of 20% or more and less than 40%)	5 (Herbicidal ratio of 90% or more (almost completely withered))	4 (Herbicidal ratio of 70% or more and less than 90%)	3 (Herbicidal ratio of 40% or more and less than 70%)	4 (Herbicidal ratio of 70% or more and less than 90%)	5 (Herbicidal ratio of 90% or more (almost completely withered))	4 (Herbicidal ratio of 70% or more and less than 90%)	3 (Herbicidal ratio of 40% or more and less than 70%)	1 (Herbicidal ratio of 5% or more and less than 20%)	5 (Herbicidal ratio of 90% or more (almost completely withered))	5 (Herbicidal ratio of 90% or more (almost completely withered))	5 (Herbicidal ratio of 90% or more (almost completely withered))	5 (Herbicidal ratio of 90% or more (almost completely withered))	5 (Herbicidal ratio of 90% or more (almost completely withered))	5 (Herbicidal ratio of 90% or more (almost completely withered))	3 (Herbicidal ratio of 40% or more and less than 70%)	I (Avena fatua) herbicidal effect grade (Avena fatua): 3 (Herbicidal ratio of 40% or more and less than 70%); K (Lolium multiflorum Lam.) herbicidal effect grade (Lolium multiflorum Lam.): 1 (Herbicidal ratio of 5% or more and less than 20%)
COCCn1nnnc1NC(=O)c1ccc(C(F)(F)F)n2c(C(C)C)nnc12 [2-041]	2 (Herbicidal ratio of 20% or more and less than 40%)	4 (Herbicidal ratio of 70% or more and less than 90%)	0 (Herbicidal ratio of 5% or less (almost no effect))	4 (Herbicidal ratio of 70% or more and less than 90%)	3 (Herbicidal ratio of 40% or more and less than 70%)	5 (Herbicidal ratio of 90% or more (almost completely withered))	5 (Herbicidal ratio of 90% or more (almost completely withered))	4 (Herbicidal ratio of 70% or more and less than 90%)	3 (Herbicidal ratio of 40% or more and less than 70%)	4 (Herbicidal ratio of 70% or more and less than 90%)	4 (Herbicidal ratio of 70% or more and less than 90%)	4 (Herbicidal ratio of 70% or more and less than 90%)	3 (Herbicidal ratio of 40% or more and less than 70%)	4 (Herbicidal ratio of 70% or more and less than 90%)	5 (Herbicidal ratio of 90% or more (almost completely withered))	4 (Herbicidal ratio of 70% or more and less than 90%)	5 (Herbicidal ratio of 90% or more (almost completely withered))	5 (Herbicidal ratio of 90% or more (almost completely withered))	5 (Herbicidal ratio of 90% or more (almost completely withered))	3 (Herbicidal ratio of 40% or more and less than 70%)	I (Avena fatua) herbicidal effect grade (Avena fatua): 3 (Herbicidal ratio of 40% or more and less than 70%); K (Lolium multiflorum Lam.) herbicidal effect grade (Lolium multiflorum Lam.): 3 (Herbicidal ratio of 40% or more and less than 70%)
Cc1ccc(-c2nnc3c(C(=O)Nc4nnnn4C)ccc(C(F)(F)F)n23)cc1 [2-042]	4 (Herbicidal ratio of 70% or more and less than 90%)	2 (Herbicidal ratio of 20% or more and less than 40%)	0 (Herbicidal ratio of 5% or less (almost no effect))	3 (Herbicidal ratio of 40% or more and less than 70%)	0 (Herbicidal ratio of 5% or less (almost no effect))	4 (Herbicidal ratio of 70% or more and less than 90%)	4 (Herbicidal ratio of 70% or more and less than 90%)	3 (Herbicidal ratio of 40% or more and less than 70%)	4 (Herbicidal ratio of 70% or more and less than 90%)	5 (Herbicidal ratio of 90% or more (almost completely withered))	1 (Herbicidal ratio of 5% or more and less than 20%)	0 (Herbicidal ratio of 5% or less (almost no effect))	2 (Herbicidal ratio of 20% or more and less than 40%)	5 (Herbicidal ratio of 90% or more (almost completely withered))	5 (Herbicidal ratio of 90% or more (almost completely withered))	5 (Herbicidal ratio of 90% or more (almost completely withered))	3 (Herbicidal ratio of 40% or more and less than 70%)	5 (Herbicidal ratio of 90% or more (almost completely withered))	5 (Herbicidal ratio of 90% or more (almost completely withered))	5 (Herbicidal ratio of 90% or more (almost completely withered))	I (Avena fatua) herbicidal effect grade (Avena fatua): 2 (Herbicidal ratio of 20% or more and less than 40%); K (Lolium multiflorum Lam.) herbicidal effect grade (Lolium multiflorum Lam.): 1 (Herbicidal ratio of 5% or more and less than 20%)
Cn1nnnc1NC(=O)c1ccc(C(F)(F)F)n2c(-c3ccc(F)cc3)nnc12 [2-043]	3 (Herbicidal ratio of 40% or more and less than 70%)	4 (Herbicidal ratio of 70% or more and less than 90%)	1 (Herbicidal ratio of 5% or more and less than 20%)	4 (Herbicidal ratio of 70% or more and less than 90%)	3 (Herbicidal ratio of 40% or more and less than 70%)	5 (Herbicidal ratio of 90% or more (almost completely withered))	5 (Herbicidal ratio of 90% or more (almost completely withered))	4 (Herbicidal ratio of 70% or more and less than 90%)	4 (Herbicidal ratio of 70% or more and less than 90%)	5 (Herbicidal ratio of 90% or more (almost completely withered))	4 (Herbicidal ratio of 70% or more and less than 90%)	4 (Herbicidal ratio of 70% or more and less than 90%)	3 (Herbicidal ratio of 40% or more and less than 70%)	5 (Herbicidal ratio of 90% or more (almost completely withered))	5 (Herbicidal ratio of 90% or more (almost completely withered))	5 (Herbicidal ratio of 90% or more (almost completely withered))	5 (Herbicidal ratio of 90% or more (almost completely withered))	5 (Herbicidal ratio of 90% or more (almost completely withered))	5 (Herbicidal ratio of 90% or more (almost completely withered))	4 (Herbicidal ratio of 70% or more and less than 90%)	I (Avena fatua) herbicidal effect grade (Avena fatua): 4 (Herbicidal ratio of 70% or more and less than 90%); K (Lolium multiflorum Lam.) herbicidal effect grade (Lolium multiflorum Lam.): 2 (Herbicidal ratio of 20% or more and less than 40%)
